According to PMC7447632, “Highly functionalized β-lactams and 2-ketopiperazines as TRPM8 antagonists with antiallodynic activity” (Scientific Reports, 2020):
Counter-ions that a name gives are not always drawn.

Assays:
Format in all cases: cell-based
rat TRPM8 channel = molecular target: T1, rat TRPM8 channel (Rattus norvegicus, UniProt Q8R455); test: Ca2+ microfluorometry, menthol-induced Ca2+ influx in HEK293 cells expressing rat TRPM8; conditions: 100 µM menthol, HEK-rTRPM8; for % Blockade 5 µM: 5 µM compound; for % Blockade 50 µM: 50 µM compound; for IC50: Ca2+ microfluorometry
T1 construct: expressed in transfected cells; host or cells: HEK293 (stably transfected)
T1 sequence (Q8R455 whole entry): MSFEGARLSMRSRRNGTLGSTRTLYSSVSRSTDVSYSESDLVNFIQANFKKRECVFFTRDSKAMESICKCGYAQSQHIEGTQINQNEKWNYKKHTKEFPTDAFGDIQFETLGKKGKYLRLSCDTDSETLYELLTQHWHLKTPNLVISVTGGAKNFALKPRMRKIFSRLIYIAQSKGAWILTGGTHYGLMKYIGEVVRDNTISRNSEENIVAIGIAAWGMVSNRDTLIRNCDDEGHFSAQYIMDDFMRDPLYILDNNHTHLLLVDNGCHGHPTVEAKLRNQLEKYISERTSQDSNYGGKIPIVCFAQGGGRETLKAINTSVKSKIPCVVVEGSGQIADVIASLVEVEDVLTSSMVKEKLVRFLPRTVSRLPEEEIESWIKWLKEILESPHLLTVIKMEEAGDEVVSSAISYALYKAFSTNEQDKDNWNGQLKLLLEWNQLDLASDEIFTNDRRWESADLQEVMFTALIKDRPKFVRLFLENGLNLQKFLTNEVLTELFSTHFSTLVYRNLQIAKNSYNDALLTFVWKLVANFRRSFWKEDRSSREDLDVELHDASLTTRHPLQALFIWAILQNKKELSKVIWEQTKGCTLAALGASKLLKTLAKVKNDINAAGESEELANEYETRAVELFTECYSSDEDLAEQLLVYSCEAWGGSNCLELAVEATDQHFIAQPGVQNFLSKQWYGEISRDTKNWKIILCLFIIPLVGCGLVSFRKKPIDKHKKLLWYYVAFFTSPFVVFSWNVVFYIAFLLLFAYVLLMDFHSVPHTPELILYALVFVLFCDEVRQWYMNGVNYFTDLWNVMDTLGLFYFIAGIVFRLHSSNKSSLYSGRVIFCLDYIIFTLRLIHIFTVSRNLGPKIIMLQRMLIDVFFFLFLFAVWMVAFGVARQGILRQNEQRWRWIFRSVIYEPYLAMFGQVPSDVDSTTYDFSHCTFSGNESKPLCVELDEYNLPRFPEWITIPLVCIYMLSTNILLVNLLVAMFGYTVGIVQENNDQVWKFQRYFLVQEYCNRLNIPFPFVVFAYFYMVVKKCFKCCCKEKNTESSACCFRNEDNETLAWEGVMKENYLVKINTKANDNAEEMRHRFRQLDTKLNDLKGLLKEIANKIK
Description: The ability to inhibit menthol-induced Ca^2+ intracellular influx into the cytosol on HEK293 cells heterologously expressing the rat TRPM8 channel was measured and compared to that of AMTB, a well-known TRPM8 antagonist. Representative recordings of fluorescence obtained in microfluorometry experiments for selected compounds are in Supplementary Fig. S3.
(§1) Human embryonic kidney cell line (HEK) stably transfected with rTRPM8 or h-TRPV1 were used as previously described. Briefly, cells were seeded in 96-well plates at a cell density of 30,000 cells 2 days before treatment. Buffer used was HBBS (in mM): 138 NaCl, 5.33 KCl, 1.26 CaCl2, 0.5 MgCl-6H2O, 0.4 MgSO4-7H2O, 4 NaHCO3 0.44 KH2PO4, 0.3 Na2HPO4, pH 7.4. The day of treatment the medium was replaced with 100 µL of the dye loading solution Fluo-4 NW supplemented with probenecid 2.5 mM. After incubation, plates were transferred to a fluorescence plate reader (Polastar BMG). In the experimental protocol, the baseline fluorescence was recorded ([…]) for 3 cycles. After, vehicle, compound at different concentrations and the corresponding antagonist, 10 µM AMTB for TRPM8 or 10 µM Ruthenium Red for TRPV1 were added to the well. Fluorescence intensity was recorded during 7 cycles more. Finally, the agonist 100 µM menthol for TRPM8 or 1 µM capsaicin for TRPV1 was added and fluorescence intensity was recorded during 10 cycles more.
The degree of inhibition of TRPM8 channel gating was calculated by comparison to calcium increase signal elicited by test substances and menthol at 100 µM. Decrease of menthol signal was expressed as percentage of inhibition (%). All data are expressed as mean ± standard deviation (SD). Each condition was assessed by triplicate (n = 3) in 3 independent experiments (N = 3). Z-factor was calculated in each assay using the following equation: […]. In all the experiments Z-factor was ≥ 0.5. To calculate IC50, normalized responses (%) versus log [µM] were adjusted to a non-linear fit with variable slope, a four-parameter dose–response curve following curve Y = 100/(1 + 10^((Log IC50-X)*HillSlope)) where […].

hTRPV1 channels = molecular target: T2, hTRPV1 channels (Homo sapiens, UniProt Q8NER1); test: Ca2+ microfluorometry in HEK cells expressing hTRPV1 (capsaicin); conditions: 1 µM capsaicin; for TRPV1 Blockade (%) 5 µM: 5 µM compound; for TRPV1 Blockade (%) 50 µM: 50 µM compound
T2 construct: expressed in transfected cells; host or cells: HEK (stably transfected)
T2 sequence (Q8NER1 whole entry): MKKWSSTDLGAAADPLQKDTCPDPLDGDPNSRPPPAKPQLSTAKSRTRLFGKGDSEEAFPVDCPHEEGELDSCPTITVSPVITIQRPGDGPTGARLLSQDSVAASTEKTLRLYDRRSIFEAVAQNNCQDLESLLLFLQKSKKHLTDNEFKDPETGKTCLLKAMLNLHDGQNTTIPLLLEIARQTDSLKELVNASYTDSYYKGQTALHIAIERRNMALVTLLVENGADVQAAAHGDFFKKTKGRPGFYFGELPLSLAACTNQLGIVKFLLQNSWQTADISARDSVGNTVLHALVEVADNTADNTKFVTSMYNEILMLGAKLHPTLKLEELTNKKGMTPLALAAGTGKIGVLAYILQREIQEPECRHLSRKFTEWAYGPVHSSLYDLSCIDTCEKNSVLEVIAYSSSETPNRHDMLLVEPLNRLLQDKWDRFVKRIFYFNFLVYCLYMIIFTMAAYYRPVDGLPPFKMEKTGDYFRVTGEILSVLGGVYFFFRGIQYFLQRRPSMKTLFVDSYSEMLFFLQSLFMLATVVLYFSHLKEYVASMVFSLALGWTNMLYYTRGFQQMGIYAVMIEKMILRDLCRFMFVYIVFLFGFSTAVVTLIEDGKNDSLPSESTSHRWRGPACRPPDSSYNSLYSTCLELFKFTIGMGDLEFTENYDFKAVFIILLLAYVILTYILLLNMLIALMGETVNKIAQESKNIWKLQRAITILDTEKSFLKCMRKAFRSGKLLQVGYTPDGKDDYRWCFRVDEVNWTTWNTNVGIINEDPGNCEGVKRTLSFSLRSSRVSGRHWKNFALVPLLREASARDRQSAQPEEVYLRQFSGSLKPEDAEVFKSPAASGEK
Description: β-Lactam and 2-ketopiperazine derivatives were also assayed for their activity in cell expressing hTRPV1 channels. No significant antagonist activity was measured for any derivatives within both chemotypes (Supplementary Tables S1, S2, and Fig. S3), indicating their selectivity for TRPM8 channels.
as §1
Table S1. Activity at hTRPV1 of β–lactams derived from phenylalaninol conjugates
Compd. Isomer Isomer TRPV1 Blockade (%)
Table S2. Activity at hTRPV1 of 2-ketopiperazines derived from phenylalaninol

[1] = tested on: A549 (lung carcinoma, NSCLC); test: SRB cytotoxicity assay, A549
Description: (§2) Human tumor cell lines used in this study were purchased from the ATCC. A-549 (CCL-185), lung carcinoma; HT-29 (HTB-38), colorectal adenocarcinoma; MDA-MB-231 (HTB-26), breast adenocarcinoma; PSN1, pancreas adenocarcinoma.
(§3) All cell lines were maintained in DMEM (Dulbecco’s Modified Eagle's Medium) culture medium supplemented with 10% FBS (Fetal Bovine Serum), 100 Units/mL penicillin/streptomycin at 37 °C, 5% CO2 and 95% humidity.
(§4) Triplicate cultures were incubated for 72 h in the presence or absence of test compounds in dose–response curves (10 concentrations, typically ranging from 10 to 0.0026 µg/mL). A colorimetric assay using sulforhodamine B (SRB) was adapted for quantitative measurement of cell growth and cytotoxicity. A more detailed information on this assay is provides in the supplementary information. GI50 is the compound concentration that produces 50% inhibition on cell growth as compared to control cells.
(§5) In vitro bioassays for the detection of antitumor activity
(§6) The aim of this assay is to evaluate the in vitro cytostatic (ability to delay or arrest tumor cell growth) or cytotoxic (ability to kill tumor cells) activity of the samples […]
(§7) Name Nº ATCC Species Tissue Characteristics
(§8) A549 CCL-185 human lung lung carcinoma (NSCLC)
(§9) HT29 HTB-38 human colon colorectal adenocarcinoma
(§10) MDA-MB-231 HTB-26 human breast breast adenocarcinoma
(§11) PSN1 CRM-CRL-3211 human pancreas pancreas adenocarcinoma […]
(§12) A colorimetric assay, using Sulforhodamine B (SRB) reaction has been adapted to provide a quantitative measurement of cell growth and viability (following the technique described by Skehan et al. J. Natl. Cancer Inst. 1990, 82, 1107-1112 […]
(§13) This form of assay employs 96-well cell culture microplates following the standards of the American National Standards Institute and the Society for Laboratory […]
(§14) used in this study were obtained from the American Type Culture Collection (ATCC) and derive from different types of human cancer.
(§15) A549, HT29, MDA-MB-231 and PSN1 cells were maintained in Dulbecco’s
(§16) Modified Eagle Medium (DMEM) supplemented with 10% Fetal Bovine Serum (FBS), 2mM L-glutamine, 100 U/mL penicillin, and 100 U/mL streptomycin at 37 °C, 5% CO2 and 98% humidity. For the experiments, cells were harvested from subconfluent cultures using trypsinization and resuspended in fresh medium before counting and […]
(§17) A549, HT29, MDA-MB-231 and PSN1 cells were seeded in 96 well microtiter plates, at 5000 cells per well in aliquots of 150 µL, and allowed to attach to the plate surface for 18 hours (overnight) in drug free medium. After that, one control (untreated) plate of each cell line was fixed (as described below) and used for time zero reference value. Culture plates were then treated with test compounds (50 µL aliquots of 4X stock […]
(§18) solutions in complete culture medium plus 4% DMSO) using ten 2/5 serial dilutions (concentrations ranging from 10 to 0.003 µg/mL) and triplicate cultures (1% final concentration in DMSO). After 72 hours treatment, the antitumor effect was measured by using the SRB methodology: Briefly, cells were washed twice with PBS, fixed for 15 min in 1% glutaraldehyde solution at room temperature, rinsed twice in PBS, and stained in 0.4% SRB solution for 30 min at room temperature. Cells were then rinsed several times with 1% acetic acid solution and air-dried at room temperature. SRB was then extracted in 10 mM trizma base solution and the absorbance measured in an automated spectrophotometric plate reader at 490 nm.
(§19) Effects on cell growth and survival were estimated by applying the NCI algorithm (Boyd MR and Paull KD. Drug Dev. Res. 1995, 34, 91-109, DOI:10.1002/ddr.430340203). The values obtained in triplicate cultures were fitted by nonlinear regression to a four-parameters logistic curve by nonlinear regression analysis. . Using the absorbance measurements [time zero, (Tz), control growth, (C), and test growth in the presence of drug at the ten concentration levels (Ti)], the […]

[2] = tested on: HT29 (colorectal adenocarcinoma); test: SRB cytotoxicity assay, HT29
Description: as §2, §3, §4, §5, §6, §7, §8, §9, §10, §11, §12, §13, §14, §15, §16, §17, §18, §19

[3] = tested on: MDA-MB-231 (breast adenocarcinoma); test: SRB cytotoxicity assay, MDA-MB-231
Description: as §2, §3, §4, §5, §6, §7, §8, §9, §10, §11, §12, §13, §14, §15, §16, §17, §18, §19

[4] = tested on: PSN1 (pancreas adenocarcinoma); test: SRB cytotoxicity assay, PSN1
Description: as §2, §3, §4, §5, §6, §7, §8, §9, §10, §11, §12, §13, §14, §15, §16, §17, §18, §19

[5] = 72 h, SRB, total growth inhibition, unit inferred

Row | % Blockade 5 µM (rat TRPM8 channel) | % Blockade 50 µM (rat TRPM8 channel) | IC50 (rat TRPM8 channel) | TRPV1 Blockade (%) 5 µM (hTRPV1 channels) | TRPV1 Blockade (%) 50 µM (hTRPV1 channels) | Structure (SMILES) | other results
1 | 93.5 ± 3.4% | 102.4 ± 1.5% | 2400 nM | 6.2±1.8% | 7.3±3.2% | C[C@H]1C(=O)N(C(Cc2ccccc2)C(=O)OCc2ccccc2)C[C@H](Cc2ccccc2)N1C(=O)OCc1ccccc1 (some centres unmarked) [Compound 26ab] | 
2 | 91.0 ± 4.3% | 105.0 ± 5.5% | 1600 ± 1300 nM | 5.7±2.3% | 12.1±1.3% | CC1C(=O)N(C[C@@H](Cc2ccccc2)NC(=O)OCc2ccccc2)[C@@]1(Cc1ccccc1)C(=O)OCc1ccccc1 (some centres unmarked) [Compound 31ab] | 
3 | 47.4 ± 6.8% | 115.1 ± 4.5% | 17400 ± 1600 nM | 4.1±2.3% | 6.3±2.3% | C[C@H]1C(=O)N(C(Cc2ccccc2)C(=O)OCc2ccccc2)C[C@@H](Cc2ccccc2)N1C(=O)OCc1ccccc1 (some centres unmarked) [Compound 32ab] | 
4 | 66.0 ± 3.3% | 105.5 ± 3.2% | 2500 ± 1300 nM |  |  | CC(C(=O)OCc1ccccc1)N1CC(Cc2ccccc2)N(C(=O)OCc2ccccc2)CC1=O (centres unmarked) [Compound 38ab] | 
5 | 46.6 ± 11.1% | 100.4 ± 3.5% | 6200 ± 1100 nM | 2.6±0.9% | 3.2±2.777% | C[C@@H]1C(=O)N(C[C@@H](Cc2ccccc2)NC(=O)OCc2ccccc2)[C@]1(C)C(=O)OCc1ccccc1 [Compound 39a] | 
6 | 79.1 ± 3.3% | 107.9 ± 2.5% | 800 ± 1200 nM |  |  | CC(C(=O)OCc1ccccc1)N1C[C@@H](Cc2ccccc2)N(C(=O)OCc2ccccc2)[C@H](C)C1=O (some centres unmarked) [Compound 40ab] | 
7 |  |  |  |  |  | COc1cccc2c1C(=O)c1c(O)c3c(c(O)c1C2=O)C[C@@](O)(C(=O)CO)C[C@@H]3O[C@H]1C[C@H](N)[C@H](O)[C@H](C)O1 [Doxorubicin.HCl, reference compound] | TGI A549 [1, 5]: 640 nM; CC50 ([1]; Homo sapiens, A549, 72 h, read-out: LC50 A549): 2930 nM; GI50 ([1]; Homo sapiens, A549, 72 h, SRB): 240 nM; TGI HT29 [2, 5]: 640 nM; CC50 ([2]; Homo sapiens, HT-29, 72 h, read-out: LC50 HT29): > 17200 nM; GI50 ([2]; Homo sapiens, HT-29, 72 h, SRB): 190 nM; TGI MDA-MB-231 [3, 5]: 410 nM; CC50 ([3]; Homo sapiens, MDA-MB-231, 72 h, read-out: LC50 MDA-MB-231): 980 nM; GI50 ([3]; Homo sapiens, MDA-MB-231, 72 h, SRB): 170 nM; TGI PSN1 [4, 5]: 480 nM; CC50 ([4]; Homo sapiens, PSN1, 72 h, read-out: LC50 PSN1): 1620 nM; GI50 ([4]; Homo sapiens, PSN1, 72 h, SRB): 170 nM
